Source: paper PMC9551036, “A selective and orally bioavailable VHL-recruiting PROTAC achieves SMARCA2 degradation in vivo” (Nature Communications, 2022)

Tests used:
[1] = system: VCB: PROTAC: SMARCA4^BD ternary complex; assay: TR-FRET ternary complex affinity and cooperativity, SMARCA4; type: binding, human; settings: ratio TR-FRET EC50 / TR-FRET EC50 +VCB measured in the same run, SMARCA4BD
PBRM1BD5 [2] = biological target: T1, PBRM1BD5 (Homo sapiens, UniProt P40337+Q86U86); assay: TR-FRET ternary complex affinity and cooperativity, PBRM1; type: binding; settings: TR-FRET competition for PBRM1BD5, + VCB; mean ± SD; read-out: TR-FRET Ternary PBRM1BD EC50 (PROTAC + VCB)
T1 construct: GST (TEV site) (N); His6 (TEV site) (N, cleaved yes); made in house; host or cells: PBRM1^BD5: Escherichia coli BL21(DE3)
T1 sequence (Q86U86 645-766): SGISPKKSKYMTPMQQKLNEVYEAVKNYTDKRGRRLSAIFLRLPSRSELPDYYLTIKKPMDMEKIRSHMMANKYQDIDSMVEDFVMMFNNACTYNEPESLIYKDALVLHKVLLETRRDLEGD
T1 sequence (P40337 54-213): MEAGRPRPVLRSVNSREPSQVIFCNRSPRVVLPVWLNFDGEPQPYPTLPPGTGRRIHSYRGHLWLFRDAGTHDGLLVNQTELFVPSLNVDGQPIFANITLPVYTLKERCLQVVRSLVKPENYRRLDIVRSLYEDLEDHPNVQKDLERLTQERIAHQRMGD
T1 sequence (Q15369 17-112 partner): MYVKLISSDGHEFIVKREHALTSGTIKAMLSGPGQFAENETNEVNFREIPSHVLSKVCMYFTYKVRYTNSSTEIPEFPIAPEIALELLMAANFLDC
T1 sequence (Q15370 1-104 partner): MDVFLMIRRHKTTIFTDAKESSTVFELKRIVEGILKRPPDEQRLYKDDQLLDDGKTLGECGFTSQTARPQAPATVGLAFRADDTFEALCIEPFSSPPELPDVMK

PBRM1BD5 [3] = assay: as above; type: binding; settings: ratio TR-FRET EC50 / TR-FRET EC50 +VCB measured in the same run, PBRM1BD5
SMARCA4 = SMARCA4 (Homo sapiens, UniProt P51532); assay: SMARCA4 capillary electrophoresis protein assay in RKO cells; type: cell-based; parameters: endogenous in cells; host or cells: RKO, HCT116, LU99, HCC-364, HCT-15, HCC4006, SK-N-AS; settings: mean ± SD
Chain of SMARCA4 (P51532 whole entry): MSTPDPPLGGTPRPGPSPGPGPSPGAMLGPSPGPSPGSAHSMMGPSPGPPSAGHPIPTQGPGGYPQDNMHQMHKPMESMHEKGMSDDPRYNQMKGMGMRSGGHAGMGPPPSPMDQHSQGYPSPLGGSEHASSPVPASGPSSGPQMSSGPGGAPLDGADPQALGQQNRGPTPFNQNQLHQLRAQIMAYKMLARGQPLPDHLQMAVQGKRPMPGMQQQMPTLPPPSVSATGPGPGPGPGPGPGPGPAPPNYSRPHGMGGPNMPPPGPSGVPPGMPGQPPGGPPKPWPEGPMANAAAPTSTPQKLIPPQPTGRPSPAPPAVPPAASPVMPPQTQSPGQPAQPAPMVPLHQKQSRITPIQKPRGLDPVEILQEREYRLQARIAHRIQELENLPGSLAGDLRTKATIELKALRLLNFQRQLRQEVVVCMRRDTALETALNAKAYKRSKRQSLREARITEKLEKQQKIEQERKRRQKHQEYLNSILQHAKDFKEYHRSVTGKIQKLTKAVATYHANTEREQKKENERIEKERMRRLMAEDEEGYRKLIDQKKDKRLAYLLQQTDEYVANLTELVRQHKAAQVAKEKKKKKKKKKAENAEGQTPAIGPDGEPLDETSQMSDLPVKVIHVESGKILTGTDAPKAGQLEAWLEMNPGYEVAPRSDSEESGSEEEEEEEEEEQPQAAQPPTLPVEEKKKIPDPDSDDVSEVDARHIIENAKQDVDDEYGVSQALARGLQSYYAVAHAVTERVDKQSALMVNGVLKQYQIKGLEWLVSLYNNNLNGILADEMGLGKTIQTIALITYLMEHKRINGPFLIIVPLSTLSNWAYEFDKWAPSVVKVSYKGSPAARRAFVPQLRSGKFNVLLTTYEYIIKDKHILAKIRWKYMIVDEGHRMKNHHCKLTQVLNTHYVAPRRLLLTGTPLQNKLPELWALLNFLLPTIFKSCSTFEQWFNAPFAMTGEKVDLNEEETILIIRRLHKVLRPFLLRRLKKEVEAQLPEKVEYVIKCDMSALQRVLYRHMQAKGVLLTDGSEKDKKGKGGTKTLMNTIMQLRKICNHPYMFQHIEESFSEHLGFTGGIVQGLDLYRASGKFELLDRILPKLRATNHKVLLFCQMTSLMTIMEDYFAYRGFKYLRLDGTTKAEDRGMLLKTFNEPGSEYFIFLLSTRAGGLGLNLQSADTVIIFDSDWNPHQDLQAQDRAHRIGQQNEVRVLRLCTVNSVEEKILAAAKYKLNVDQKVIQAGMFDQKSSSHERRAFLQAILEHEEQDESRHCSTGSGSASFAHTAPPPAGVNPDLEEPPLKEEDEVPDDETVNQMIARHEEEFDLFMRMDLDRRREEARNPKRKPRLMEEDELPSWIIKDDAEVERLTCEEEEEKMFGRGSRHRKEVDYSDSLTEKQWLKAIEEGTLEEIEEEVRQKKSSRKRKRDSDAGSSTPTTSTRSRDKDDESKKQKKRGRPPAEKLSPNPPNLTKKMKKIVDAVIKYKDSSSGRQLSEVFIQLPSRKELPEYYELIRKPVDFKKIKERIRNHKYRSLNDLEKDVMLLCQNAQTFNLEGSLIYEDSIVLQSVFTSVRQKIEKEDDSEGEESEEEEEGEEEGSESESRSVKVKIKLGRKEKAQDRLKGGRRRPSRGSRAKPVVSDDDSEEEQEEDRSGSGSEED
Procedure: (§1) 130,000–200,000 cells were seeded in 24-well plates and incubated until settled down or overnight. Compounds were dissolved in DMSO and added to cells in indicated concentrations using a digital dispenser following an optional media change. Cells were incubated for 4 or 18 h as indicated. For SMARCA2/4 half-life determination, 150,000 or 200,000 cells were seeded in 24-well plates. The next day, 50 µg/ml cycloheximide (Sigma) was added and cells were incubated for 1–24 h. For SMARCA2/4 re-synthesis measurements, 200,000 cells were seeded in 24-well plates. The next day, 100 nM compound 6 was added for 4 h to degrade SMARCA2/4, and a sample was taken as baseline for normalisation. To allow re-synthesis, a VHL binder (compound 32, 25 or 50 µM) was then added for 3 or 24 h. Medium was removed, cells were washed with PBS and lysed with 80 µl Lysis Buffer (MSD Tris Lysis Buffer (#R60TX-2) + Halt Inhibitor Cocktail (100x) + Benzonase 0.5 µL/ml). Samples were frozen at −80 °C and thawed at room temperature before use. Samples were transferred to a V-bottom plate and insoluble debris was pelleted by centrifugation for 5 min at maximum speed. The supernatant was transferred to a fresh plate. Master Mix and Ladder were prepared according to manufacturer’s instructions for 12–230 kDa Wes Separation Module, 8 × 25 capillary cartridges, Protein Simple #SM-W004 with Anti-Rabbit Detection Module for Wes, Peggy Sue or Sally Sue, Protein Simple #DM-001. 4.8 µl lysate were mixed with 1.2 µl Master Mix to achieve a protein concentration of ~0.5 µg/µl. Antibodies were diluted in Antibody Diluent II (SMARCA2 Sigma #HPA029981 RRID:AB_10602406 1:25–100, SMARCA4 Cell Signalling #49360 clone D1Q7F RRID:AB_2728743 1:15–120 or Abcam #ab110641 clone EPNCIR111A RRID:AB_10861578 1:60, GAPDH Abcam #ab9485 RRID:AB_307275 1:250). Wes plates were prepared and run according to manufacturer’s instructions. Proteins were quantified with accompanying Compass Software. SMARCA2/4 protein levels were normalised to GAPDH. […] Where applicable, curves were fitted using a 4-parametric logistic model.

SMARCA2 = SMARCA2 (Homo sapiens, UniProt P51531); assay: SMARCA2 capillary electrophoresis protein assay in RKO cells; type: cell-based; parameters: endogenous in cells; host or cells: RKO, NCI-H1568, A549, HCT116, LU99, HCC-364, HCT-15, HCC4006, SK-N-AS; settings: mean ± SD
Chain of SMARCA2 (P51531 whole entry): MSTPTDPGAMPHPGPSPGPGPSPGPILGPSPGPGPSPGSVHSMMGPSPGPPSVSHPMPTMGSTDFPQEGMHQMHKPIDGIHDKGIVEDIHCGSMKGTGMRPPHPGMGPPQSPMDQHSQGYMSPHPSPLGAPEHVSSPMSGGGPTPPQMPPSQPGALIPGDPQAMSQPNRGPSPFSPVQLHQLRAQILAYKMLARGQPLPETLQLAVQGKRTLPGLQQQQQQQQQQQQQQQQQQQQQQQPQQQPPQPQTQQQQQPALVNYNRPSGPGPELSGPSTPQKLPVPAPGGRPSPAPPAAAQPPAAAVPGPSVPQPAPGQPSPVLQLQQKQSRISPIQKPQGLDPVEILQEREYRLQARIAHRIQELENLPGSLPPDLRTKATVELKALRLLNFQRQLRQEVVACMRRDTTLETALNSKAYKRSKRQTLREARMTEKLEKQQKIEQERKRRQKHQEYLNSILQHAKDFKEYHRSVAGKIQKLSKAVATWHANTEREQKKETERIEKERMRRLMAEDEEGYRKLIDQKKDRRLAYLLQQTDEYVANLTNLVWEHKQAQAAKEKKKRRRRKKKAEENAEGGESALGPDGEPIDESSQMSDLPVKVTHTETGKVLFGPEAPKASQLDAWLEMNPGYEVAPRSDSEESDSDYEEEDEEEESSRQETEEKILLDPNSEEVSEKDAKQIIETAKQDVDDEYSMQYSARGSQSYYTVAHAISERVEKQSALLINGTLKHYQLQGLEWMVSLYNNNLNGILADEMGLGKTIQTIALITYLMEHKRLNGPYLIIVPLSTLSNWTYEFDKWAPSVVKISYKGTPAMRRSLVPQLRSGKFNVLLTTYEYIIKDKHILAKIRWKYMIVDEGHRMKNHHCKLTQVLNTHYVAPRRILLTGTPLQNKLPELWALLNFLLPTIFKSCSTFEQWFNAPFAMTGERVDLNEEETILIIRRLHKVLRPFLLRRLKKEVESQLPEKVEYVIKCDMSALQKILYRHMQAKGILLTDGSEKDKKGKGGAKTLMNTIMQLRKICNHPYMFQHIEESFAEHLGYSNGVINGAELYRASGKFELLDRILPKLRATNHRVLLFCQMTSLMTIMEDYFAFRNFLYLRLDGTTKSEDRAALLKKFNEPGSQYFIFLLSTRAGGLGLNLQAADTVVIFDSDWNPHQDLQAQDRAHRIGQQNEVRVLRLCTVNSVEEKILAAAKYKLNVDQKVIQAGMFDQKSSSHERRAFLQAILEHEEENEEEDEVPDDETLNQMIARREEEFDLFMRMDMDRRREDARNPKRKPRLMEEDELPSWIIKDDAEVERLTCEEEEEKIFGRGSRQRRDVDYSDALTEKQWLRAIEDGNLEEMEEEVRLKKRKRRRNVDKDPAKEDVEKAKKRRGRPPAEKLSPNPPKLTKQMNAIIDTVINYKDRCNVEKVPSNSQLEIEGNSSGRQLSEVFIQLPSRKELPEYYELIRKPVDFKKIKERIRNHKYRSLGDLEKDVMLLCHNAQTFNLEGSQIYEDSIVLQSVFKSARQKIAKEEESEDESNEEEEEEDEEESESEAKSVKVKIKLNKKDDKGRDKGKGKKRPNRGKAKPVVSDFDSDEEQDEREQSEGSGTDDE
Procedure: as §1, with “Cells were incubated for 4 or 18 h as indicated.” left out, “The next day, 50 µg/ml cycloheximide (Sigma) was added and cells were incubated for 1–24 h.” left out, “The next day, 100 nM compound 6 was added for 4 h to degrade SMARCA2/4, and a sample was taken as baseline for normalisation. To allow re-synthesis, a VHL binder (compound 32, 25 or 50 µM) was then added for 3 or 24 h.” left out, “Antibodies were diluted in Antibody Diluent II (SMARCA2 Sigma #HPA029981 RRID:AB_10602406 1:25–100, SMARCA4 Cell Signalling #49360 clone D1Q7F RRID:AB_2728743 1:15–120 or Abcam #ab110641 clone EPNCIR111A RRID:AB_10861578 1:60, GAPDH Abcam #ab9485 RRID:AB_307275 1:250).” left out

| Compound | cooperativity α (SMARCA4BD) [1] | EC50 (PBRM1BD5 [2]) | cooperativity α (PBRM1BD) (PBRM1BD5 [3]) | DC50 (SMARCA4; RKO (4 h)) | DC50 (SMARCA4; RKO (18 h)) | Dmax (SMARCA4; RKO, RKO (18 h)) | DC50 (SMARCA2; RKO (4 h)) | Dmax (SMARCA2; RKO, RKO (18 h)) | DC50 (SMARCA2; RKO (18 h)) |
| --- | --- | --- | --- | --- | --- | --- | --- | --- | --- |
| Cc1ncsc1-c1ccc([C@H](CC[C@H](C)CCN2CCC(c3ccc4c(c3)n(C3CCCC3)c3nc(=O)c5c(Br)cccc5n43)CC2)NC(=O)[C@@H]2C[C@H](O)CN2C(=O)[C@@H](NC(=O)C2(F)CC2)C(C)(C)C)cc1 [compound 12] | 0.9 ± 0.1 | 0.078 ± 0.007 µM | 1.0 ± 0.0 | > 25 µM | 5.83 µM | 94 ± 7% | > 25 µM | 82 ± 16% |  |
| CN1CCN(c2nc(=O)c3c(Cl)cccc3o2)CC1 [compound 13] |  |  |  | > 25 µM | > 25 µM |  | > 25 µM |  | > 25 µM |
| CN1CCN(c2nc(=O)c3ccccc3o2)CC1 [compound 14] |  |  |  | > 25 µM | > 25 µM |  | > 25 µM |  | > 25 µM |
| CN1CCN(c2nc(=O)c3c(Br)cccc3o2)CC1 [compound 15] |  |  |  | > 25 µM | > 25 µM |  | > 25 µM |  | > 25 µM |
| CN1CCN(c2nc(=O)c3c(I)cccc3o2)CC1 [compound 16] |  |  |  | > 25 µM | > 25 µM |  | > 25 µM |  | > 25 µM |
| CN1CCN(c2nc(=O)c3c(F)cccc3o2)CC1 [compound 17] |  |  |  | > 25 µM | > 25 µM |  | > 25 µM |  | > 25 µM |
| Cc1ncsc1-c1ccc(CNC(=O)[C@@H]2C[C@H](O)CN2C(=O)[C@@H](NC(=O)C2(F)CC2)C(C)(C)C)c(OCCN2CCC(c3ccc4c(c3)n(C3CCCC3)c3nc(=O)c5c(Br)cccc5n43)CC2)c1 [compound 19] | 0.9 ± 0.1 | 0.04 ± 0.001 µM | 1.0 ± 0.1 | > 25 µM | > 25 µM |  | > 25 µM |  | > 25 µM |
| Cc1ncsc1-c1ccc(CNC(=O)[C@@H]2C[C@@H](O)CN2C(=O)[C@@H](NC(=O)C2(F)CC2)C(C)(C)C)c(OCCN2CCC(c3ccc4c(c3)n(C3CCCC3)c3nc(=O)c5c(Br)cccc5n43)CC2)c1 [compound 20] | 0.4 ± 0.0 | 0.035 ± 0.004 µM | 1.1 ± 0.1 | > 25 µM | > 25 µM |  | > 25 µM |  | > 25 µM |
